Key:
Format in all cases: in vivo
soybean (Glycine max) = assay: Test C postemergence, plant response rating; settings: for Soybean plant response rating: scale 0 to 100 (0 no effect, 100 complete control)
In short: (§1)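 Visual injury score, 0 = no effect, 100 = complete control, assigned against untreated controls after 13 to 15 d in the greenhouse. Compounds were applied in a surfactant-containing non-phytotoxic solvent mix, preemergence to seeded loam/sand or silt loam soil, or postemergence to 1- to 4-leaf plants (2 to 18 cm).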

[1] = system: nutsedge, yellow (yellow nutsedge, Cyperus esculentus); assay: Test C postemergence, plant response rating; settings: for Nutsedge, Yellow plant response rating: scale 0 to 100 (0 no effect, 100 complete control)
In short: as §1

[2] = system: galium (catchweed bedstraw, Galium aparine); assay: Test C postemergence, plant response rating; settings: for Galium plant response rating: scale 0 to 100 (0 no effect, 100 complete control)
In short: as §1

[3] = system: ryegrass, Italian (Italian ryegrass, Lolium multiflorum); assay: Test C postemergence, plant response rating; settings: for Ryegrass, Italian plant response rating: scale 0 to 100 (0 no effect, 100 complete control)
In short: as §1

[4] = system: ragweed (common ragweed, Ambrosia elatior); assay: Test C postemergence, plant response rating; settings: for Ragweed plant response rating: scale 0 to 100 (0 no effect, 100 complete control)
In short: as §1

[5] = system: lambsquarters (Chenopodium album); assay: Test C postemergence, plant response rating; settings: for Lambsquarters plant response rating: scale 0 to 100 (0 no effect, 100 complete control)
In short: as §1

[6] = system: oat, wild (wild oat Avena fatua); assay: Test C postemergence, plant response rating; settings: for Oat, Wild plant response rating: scale 0 to 100 (0 no effect, 100 complete control)
In short: as §1

kochia (Kochia scoparia) [7] = assay: Test C postemergence, plant response rating; settings: for Kochia plant response rating: scale 0 to 100 (0 no effect, 100 complete control)
In short: as §1

[8] = system: waterhemp (common waterhemp, Amaranthus rudis); assay: Test C postemergence, plant response rating; settings: for Waterhemp plant response rating: 125 g ai/ha, scale 0 to 100 (0 no effect, 100 complete control)
In short: as §1

[9] = system: crabgrass, large (large crabgrass, Digitaria sanguinalis); assay: Test C postemergence, plant response rating; settings: for Crabgrass, Large plant response rating: scale 0 to 100 (0 no effect, 100 complete control)
In short: as §1

corn (Zea mays) = assay: Test C postemergence, plant response rating; settings: for Corn plant response rating: scale 0 to 100 (0 no effect, 100 complete control)
In short: as §1

[10] = system: chickweed (common chickweed, Stellaria media); assay: Test C postemergence, plant response rating; settings: for Chickweed plant response rating: scale 0 to 100 (0 no effect, 100 complete control)
In short: as §1

[11] = system: pigweed (Amaranthus retroflexus); assay: Test A preemergence, visual injury rating; settings: for Pigweed plant response rating: 0 to 100 scale (0 no effect, 100 complete control)
In short: (§2)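 Visual injury scored 0–100 (100 = complete control) against untreated controls about 10 days after treatment in a greenhouse. Test chemicals, formulated with surfactant in non-phytotoxic solvent, were sprayed on soil preemergence or on 2-10 cm, one- to two-leaf plants postemergence.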

[12] = system: barnyardgrass (Echinochloa crus-galli); assay: Test A preemergence, visual injury rating; settings: for Barnyardgrass plant response rating: 0 to 100 scale (0 no effect, 100 complete control)
In short: as §2

[13] = system: ragweed (common ragweed, Ambrosia elatior); assay: Test A preemergence, visual injury rating; settings: for Ragweed plant response rating: 0 to 100 scale (0 no effect, 100 complete control)
In short: as §2

[14] = system: giant foxtail (Setaria faberii); assay: Test A preemergence, visual injury rating; settings: for Foxtail, Giant plant response rating: 0 to 100 scale (0 no effect, 100 complete control)
In short: as §2

kochia (Kochia scoparia) [15] = assay: Test A preemergence, visual injury rating; settings: for Kochia plant response rating: 0 to 100 scale (0 no effect, 100 complete control)
In short: as §2

[16] = system: Italian ryegrass (Lolium multiflorum); assay: Test A preemergence, visual injury rating; settings: for Ryegrass, Italian plant response rating: 0 to 100 scale (0 no effect, 100 complete control)
In short: as §2

[17] = 31 g ai/ha, 0 to 100 scale, 0 no effect, 100 complete control

## CCCCC(=O)c1c(Br)cccc1Oc1ncc(Cl)cn1 [Compound 79]
Soybean (Glycine max); 16 g ai/ha, scale of 0 to 100
  Plant response rating, Soybean: 60
Soybean (Glycine max); 31 g ai/ha, scale 0 to 100
  Plant response rating, Soybean: 70
Soybean (Glycine max); 62 g ai/ha
  Soybean plant response rating: 65
Soybean (Glycine max); 125 g ai/ha
  Soybean plant response rating: 65
[1]; 16 g ai/ha, scale of 0 to 100
  Plant response rating, Nutsedge, Yellow: 0
[1]; 31 g ai/ha, scale 0 to 100
  Plant response rating, Nutsedge, Yellow: 5
[1]; 62 g ai/ha
  Nutsedge, Yellow plant response rating: 5
[1]; 125 g ai/ha
  Nutsedge, Yellow plant response rating: 5
[2]; 16 g ai/ha, scale of 0 to 100
  Plant response rating, Galium: 75
[2]; 31 g ai/ha, scale 0 to 100
  Plant response rating, Galium: 80
[2]; 62 g ai/ha
  Galium plant response rating: 85
[2]; 125 g ai/ha
  Galium plant response rating: 95
[3]; 16 g ai/ha, scale of 0 to 100
  Plant response rating, Ryegrass, Italian: 5
[3]; 31 g ai/ha, scale 0 to 100
  Plant response rating, Ryegrass, Italian: 30
[3]; 62 g ai/ha
  Ryegrass, Italian plant response rating: 25
[3]; 125 g ai/ha
  Ryegrass, Italian plant response rating: 30
[4]; 16 g ai/ha, scale of 0 to 100
  Plant response rating, Ragweed: 30
[4]; 31 g ai/ha, scale 0 to 100
  Plant response rating, Ragweed: 20
[4]; 62 g ai/ha
  Ragweed plant response rating: 75
[4]; 125 g ai/ha
  Ragweed plant response rating: 65
[5]; 16 g ai/ha, scale of 0 to 100
  Plant response rating, Lambsquarters: 75
[5]; 31 g ai/ha, scale 0 to 100
  Plant response rating, Lambsquarters: 85
[5]; 62 g ai/ha
  Lambsquarters plant response rating: 90
[5]; 125 g ai/ha
  Lambsquarters plant response rating: 100
[6]; 16 g ai/ha, scale of 0 to 100
  Plant response rating, Oat, Wild: 15
[6]; 31 g ai/ha, scale 0 to 100
  Plant response rating, Oat, Wild: 60
[6]; 62 g ai/ha
  Oat, Wild plant response rating: 45
[6]; 125 g ai/ha
  Oat, Wild plant response rating: 35
Kochia (Kochia scoparia) [7]; 16 g ai/ha, scale of 0 to 100
  Plant response rating, Kochia: 75
Kochia (Kochia scoparia) [7]; 31 g ai/ha, scale 0 to 100
  Plant response rating, Kochia: 80
Kochia (Kochia scoparia) [7]; 62 g ai/ha
  Kochia plant response rating: 90
Kochia (Kochia scoparia) [7]; 125 g ai/ha
  Kochia plant response rating: 98
[8]; 16 g ai/ha, scale of 0 to 100
  Plant response rating, Waterhemp: 95
[8]; 31 g ai/ha, scale 0 to 100
  Plant response rating, Waterhemp: 95
[8]
  Waterhemp plant response rating: 98
[9]; 16 g ai/ha, scale of 0 to 100
  Plant response rating, Crabgrass, Large: 10
[9]; 31 g ai/ha, scale 0 to 100
  Plant response rating, Crabgrass, Large: 25
[9]; 62 g ai/ha
  Crabgrass, Large plant response rating: 70
[9]; 125 g ai/ha
  Crabgrass, Large plant response rating: 65
Corn (Zea mays); 16 g ai/ha, scale of 0 to 100
  Plant response rating, Corn: 15
Corn (Zea mays); 31 g ai/ha, scale 0 to 100
  Plant response rating, Corn: 25
Corn (Zea mays); 62 g ai/ha
  Corn plant response rating: 20
Corn (Zea mays); 125 g ai/ha
  Corn plant response rating: 20
[10]; 16 g ai/ha, scale of 0 to 100
  Plant response rating, Chickweed: 95
[10]; 31 g ai/ha, scale 0 to 100
  Plant response rating, Chickweed: 90
[10]; 62 g ai/ha
  Chickweed plant response rating: 95
[10]; 125 g ai/ha
  Chickweed plant response rating: 98
[11]; 125 g ai/ha
  Pigweed plant response rating: 100
[11]; 500 g ai/ha
  Pigweed plant response rating: 100
[12]; 125 g ai/ha
  Barnyardgrass plant response rating: 100
[12]; 500 g ai/ha
  Barnyardgrass plant response rating: 100
[13]; 125 g ai/ha
  Ragweed plant response rating: 30
[13]; 500 g ai/ha
  Ragweed plant response rating: 90
[14]; 125 g ai/ha
  Foxtail, Giant plant response rating: 100
[14]; 500 g ai/ha
  Foxtail, Giant plant response rating: 100
Kochia (Kochia scoparia) [15]; 125 g ai/ha
  Kochia plant response rating: 80
Kochia (Kochia scoparia) [15]; 500 g ai/ha
  Kochia plant response rating: 100
[16]; 125 g ai/ha
  Ryegrass, Italian plant response rating: 90
[16]; 500 g ai/ha
  Ryegrass, Italian plant response rating: 100

## N#Cc1cccc(Oc2ncc(Cl)cn2)c1COCCC(F)(F)F [Compound 80]
Soybean (Glycine max); 16 g ai/ha, scale of 0 to 100
  Plant response rating, Soybean: 60
Soybean (Glycine max); 31 g ai/ha, scale 0 to 100
  Plant response rating, Soybean: 75
Soybean (Glycine max); 62 g ai/ha
  Soybean plant response rating: 90
Soybean (Glycine max); 125 g ai/ha
  Soybean plant response rating: 95
[1]; 16 g ai/ha, scale of 0 to 100
  Plant response rating, Nutsedge, Yellow: 0
[1]; 31 g ai/ha, scale 0 to 100
  Plant response rating, Nutsedge, Yellow: 0
[1]; 62 g ai/ha
  Nutsedge, Yellow plant response rating: 5
[1]; 125 g ai/ha
  Nutsedge, Yellow plant response rating: 5
[2]; 16 g ai/ha, scale of 0 to 100
  Plant response rating, Galium: 70
[2]; 31 g ai/ha, scale 0 to 100
  Plant response rating, Galium: 75
[2]; 62 g ai/ha
  Galium plant response rating: 85
[2]; 125 g ai/ha
  Galium plant response rating: 90
[3]; 16 g ai/ha, scale of 0 to 100
  Plant response rating, Ryegrass, Italian: 0
[3]; 31 g ai/ha, scale 0 to 100
  Plant response rating, Ryegrass, Italian: 0
[3]; 62 g ai/ha
  Ryegrass, Italian plant response rating: 5
[3]; 125 g ai/ha
  Ryegrass, Italian plant response rating: 5
[4]; 16 g ai/ha, scale of 0 to 100
  Plant response rating, Ragweed: 5
[4]; 31 g ai/ha, scale 0 to 100
  Plant response rating, Ragweed: 10
[4]; 62 g ai/ha
  Ragweed plant response rating: 15
[4]; 125 g ai/ha
  Ragweed plant response rating: 35
[5]; 16 g ai/ha, scale of 0 to 100
  Plant response rating, Lambsquarters: 50
[5]; 31 g ai/ha, scale 0 to 100
  Plant response rating, Lambsquarters: 75
[5]; 62 g ai/ha
  Lambsquarters plant response rating: 80
[5]; 125 g ai/ha
  Lambsquarters plant response rating: 85
[6]; 16 g ai/ha, scale of 0 to 100
  Plant response rating, Oat, Wild: 0
[6]; 31 g ai/ha, scale 0 to 100
  Plant response rating, Oat, Wild: 0
[6]; 62 g ai/ha
  Oat, Wild plant response rating: 10
[6]; 125 g ai/ha
  Oat, Wild plant response rating: 5
Kochia (Kochia scoparia) [7]; 16 g ai/ha, scale of 0 to 100
  Plant response rating, Kochia: 55
Kochia (Kochia scoparia) [7]; 31 g ai/ha, scale 0 to 100
  Plant response rating, Kochia: 75
Kochia (Kochia scoparia) [7]; 62 g ai/ha
  Kochia plant response rating: 80
Kochia (Kochia scoparia) [7]; 125 g ai/ha
  Kochia plant response rating: 80
[8]; 16 g ai/ha, scale of 0 to 100
  Plant response rating, Waterhemp: 80
[8]; 31 g ai/ha, scale 0 to 100
  Plant response rating, Waterhemp: 80
[8]
  Waterhemp plant response rating: 90
[9]; 16 g ai/ha, scale of 0 to 100
  Plant response rating, Crabgrass, Large: 10
[9]; 31 g ai/ha, scale 0 to 100
  Plant response rating, Crabgrass, Large: 15
[9]; 62 g ai/ha
  Crabgrass, Large plant response rating: 10
[9]; 125 g ai/ha
  Crabgrass, Large plant response rating: 30
Corn (Zea mays); 16 g ai/ha, scale of 0 to 100
  Plant response rating, Corn: 15
Corn (Zea mays); 31 g ai/ha, scale 0 to 100
  Plant response rating, Corn: 10
Corn (Zea mays); 62 g ai/ha
  Corn plant response rating: 15
Corn (Zea mays); 125 g ai/ha
  Corn plant response rating: 25
[10]; 16 g ai/ha, scale of 0 to 100
  Plant response rating, Chickweed: 60
[10]; 31 g ai/ha, scale 0 to 100
  Plant response rating, Chickweed: 75
[10]; 62 g ai/ha
  Chickweed plant response rating: 75
[10]; 125 g ai/ha
  Chickweed plant response rating: 90
[11]; [17]
  Plant response rating, Pigweed: 100
[11]; 125 g ai/ha
  Pigweed plant response rating: 100
[12]; [17]
  Plant response rating, Barnyardgrass: 60
[12]; 125 g ai/ha
  Barnyardgrass plant response rating: 100
[13]; [17]
  Plant response rating, Ragweed: 0
[13]; 125 g ai/ha
  Ragweed plant response rating: 20
[14]; [17]
  Plant response rating, Foxtail, Giant: 90
[14]; 125 g ai/ha
  Foxtail, Giant plant response rating: 100
Kochia (Kochia scoparia) [15]; [17]
  Plant response rating, Kochia: 100
Kochia (Kochia scoparia) [15]; 125 g ai/ha
  Kochia plant response rating: 100
[16]; [17]
  Plant response rating, Ryegrass, Italian: 0
[16]; 125 g ai/ha
  Ryegrass, Italian plant response rating: 50

Source: patent US11053204B2, “Pyrimidinyloxy benzene derivatives as herbicides” (FMC Corporation, priority 2015, dated 2021)
